According to the supplement of paper PMC10307832:

What was measured:
Assay in all cases: relative viability (nuclei count vs DMSO), 5 days (fraction); higher = more cells survive
[1] = compound: O=c1[nH]c2ccccc2n1C1CCN(CCCC(c2ccc(F)cc2)c2ccc(F)cc2)CC1 [Pimozide]
In short: (§1)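 Viability here means nuclei in treated wells divided by nuclei in vehicle wells, reported as the median across plates. Only plates with control CV below 25% and at least one doubling passed. Lung cancer cell lines in 1536-well plates were exposed to five √10-spaced library-drug doses for 5 days and counted from 4× Hoechst images in MetaXpress.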

[2] = compound: Cc1sc2c(c1C)C(c1ccc(Cl)cc1)=N[C@@H](CC(=O)OC(C)(C)C)c1nnc(C)n1-2 [JQ1]
In short: as §1

[3] = compound: Nc1ccn([C@@H]2O[C@H](CO)[C@@H](O)[C@@H]2O)c(=O)n1 [Cytarabine]
In short: as §1

[4] = compound: Cc1cnc(-c2cnc(NCCNc3ccc(C#N)cn3)nc2-c2ccc(Cl)cc2Cl)[nH]1
In short: as §1

[5] = compound: CC(=O)O[C@@]12CO[C@@H]1C[C@H](O)[C@@]1(C)C(=O)[C@H](O)C3=C(C)[C@@H](OC(=O)[C@H](O)[C@@H](NC(=O)OC(C)(C)C)c4ccccc4)C[C@@](O)([C@@H](OC(=O)c4ccccc4)[C@H]21)C3(C)C [Docetaxel]
In short: as §1

[6] = compound: O=C(O)CCCCC(CCSCc1ccccc1)SCc1ccccc1 [CPI-613]
In short: as §1

[7] = compound: COc1cc2nccc(Oc3ccc(NC(=O)Nc4cc(C)on4)c(Cl)c3)c2cc1OC [Tivozanib]
In short: as §1

Row | Cell Line | relative viability ([1]; 0.08 µM) | relative viability ([1]; 0.253 µM) | relative viability ([1]; 0.8 µM) | relative viability ([1]; 2.53 µM) | relative viability ([1]; 8 µM) | relative viability ([2]; 0.04 µM) | relative viability ([2]; 0.1265 µM) | relative viability ([2]; 0.4 µM) | relative viability ([2]; 1.265 µM) | relative viability ([2]; 4 µM) | relative viability ([3]; 0.005 µM) | relative viability ([3]; 0.01581 µM) | relative viability ([3]; 0.05 µM) | relative viability ([3]; 0.1581 µM) | relative viability ([3]; 0.5 µM) | relative viability ([4]; 0.08 µM) | relative viability ([4]; 0.253 µM) | relative viability ([4]; 0.8 µM) | relative viability ([4]; 2.53 µM) | relative viability ([5]; 0.0002 µM) | relative viability ([5]; 0.000632 µM) | relative viability ([5]; 0.002 µM) | relative viability ([5]; 0.006325 µM) | relative viability ([5]; 0.02 µM) | relative viability ([6]; 5 µM) | relative viability ([6]; 15.81 µM) | relative viability ([6]; 50 µM) | relative viability ([6]; 158.11 µM) | relative viability ([6]; 500 µM) | relative viability ([7]; 0.005 µM) | relative viability ([7]; 0.01581 µM) | relative viability ([7]; 0.05 µM) | relative viability ([7]; 0.1581 µM) | relative viability ([7]; 0.5 µM)
1 | NCI-H1734 | 0.981 | 0.901 | 0.81 | 0.915 | 0.974 | 0.934 | 0.904 | 0.999 | 0.664 | 0.578 | 0.578 | 0.342 | 0.256 | 0.156 | 0.136 | 1.08 | 0.891 | 0.974 | 0.85 | 0.857 | 0.602 | 0.359 | 0.332 | 0.235 | 0.861 | 0.841 | 0.884 | 0.48 | 0.111 | 0.963 | 1.03 | 0.983 | 0.721 | 0.885
2 | LOU-NH91 | 0.785 | 0.924 | 0.916 | 1.04 | 0.896 | 0.989 | 0.801 | 0.637 | 0.626 | 0.462 | 0.955 | 0.918 | 0.723 | 0.7 | 0.584 | 1.01 | 0.924 | 0.94 | 0.976 | 0.898 | 0.758 | 0.473 | 0.369 | 0.354 | 0.926 | 0.951 | 0.982 | 0.913 | 0.842 | 0.865 | 1.04 | 0.982 | 0.814 | 0.945
3 | HCC-78 | 0.859 | – | 0.828 | 0.837 | 0.932 | 0.936 | 0.853 | 0.843 | 0.601 | 0.434 | 1.09 | 0.844 | 0.593 | 0.444 | 0.339 | 0.999 | 0.807 | 0.936 | 0.928 | 0.91 | 0.784 | 0.48 | 0.482 | 0.382 | 0.875 | 0.835 | 0.994 | 0.921 | 0.839 | 0.85 | 0.942 | 0.955 | 0.732 | 0.757
4 | PC-3 [JPC-3] | – | 0.984 | 0.945 | 1.01 | 0.894 | 0.999 | 0.997 | 0.762 | 0.675 | 0.606 | 0.945 | 0.971 | 0.773 | 0.618 | 0.631 | 1 | 0.909 | 1.04 | 1.03 | 0.98 | 1.01 | 0.585 | 0.344 | 0.188 | 1.01 | 0.952 | 1.01 | 0.789 | 0.358 | 1.03 | 1.05 | 1.06 | 1.05 | 0.912
5 | NCI-H1793 | 0.746 | 0.846 | 0.675 | 0.947 | 0.711 | 0.802 | 0.785 | 0.674 | 0.778 | 0.78 | 0.958 | 0.884 | 0.818 | 0.691 | 0.521 | 1.07 | 0.879 | 0.876 | 1.02 | 1.01 | 0.852 | 0.351 | 0.285 | 0.186 | 0.854 | 0.705 | 0.994 | 0.494 | 0.0301 | 0.84 | 0.787 | 0.952 | – | 0.977
6 | CAL-12T | 0.951 | 0.936 | 0.909 | 0.867 | 0.832 | 0.867 | 0.818 | 0.798 | 0.321 | 0.293 | 0.983 | 0.909 | 0.789 | 0.397 | 0.255 | 1.03 | 0.933 | 0.899 | 0.927 | 0.791 | 0.418 | 0.302 | 0.21 | 0.178 | 0.877 | 0.829 | 0.822 | 0.423 | 0.235 | 0.857 | 0.941 | 0.994 | 0.698 | 0.959
7 | NCI-H441 | 1.12 | 0.9 | 0.804 | 0.883 | 0.776 | 1.01 | 0.813 | 0.719 | 0.598 | 0.352 | 0.962 | 0.973 | 0.965 | 0.365 | 0.367 | 1.01 | 0.768 | 0.95 | 0.867 | 0.977 | 0.747 | 0.288 | 0.26 | 0.13 | 0.954 | 1.01 | 0.924 | 0.4 | 0.0254 | 0.949 | 0.93 | 0.919 | 0.895 | 0.766
8 | LCLC-97TM1 | 0.984 | 0.906 | 0.916 | 0.953 | 0.653 | 1 | 0.759 | 0.803 | 0.491 | 0.194 | 0.99 | 0.787 | 0.296 | 0.143 | 0.129 | 0.977 | 0.846 | 0.907 | 0.908 | 0.88 | 0.617 | 0.3 | 0.104 | 0.0757 | 0.964 | 0.993 | 0.985 | 0.97 | 0.629 | 0.953 | 1.04 | 1.05 | 0.927 | 0.919
9 | EPLC-272H | 0.852 | 0.896 | 0.842 | 0.7 | 0.61 | 0.801 | 0.797 | 0.789 | 0.433 | 0.289 | 0.768 | 0.572 | 0.487 | 0.331 | 0.173 | 1.02 | 0.836 | 0.937 | 0.962 | 0.878 | 0.533 | 0.244 | 0.104 | 0.071 | 0.9 | 0.834 | 0.839 | 0.783 | 0.449 | 0.908 | 0.885 | 0.947 | 0.731 | 0.635
